From patent US20100216767A1, “QUINAZOLINES FOR PDK1 INHIBITION” (priority 2006, published 2010)

molecular target: T1, PDK1 kinase (Homo sapiens, UniProt O15530); experiment: PDK1 Kinase Alpha Screen Assay; format: biochemical; conditions: Table 1; 10 μM ATP, 50 nM PDK1-4 peptide
T1 sequence (O15530 1-556): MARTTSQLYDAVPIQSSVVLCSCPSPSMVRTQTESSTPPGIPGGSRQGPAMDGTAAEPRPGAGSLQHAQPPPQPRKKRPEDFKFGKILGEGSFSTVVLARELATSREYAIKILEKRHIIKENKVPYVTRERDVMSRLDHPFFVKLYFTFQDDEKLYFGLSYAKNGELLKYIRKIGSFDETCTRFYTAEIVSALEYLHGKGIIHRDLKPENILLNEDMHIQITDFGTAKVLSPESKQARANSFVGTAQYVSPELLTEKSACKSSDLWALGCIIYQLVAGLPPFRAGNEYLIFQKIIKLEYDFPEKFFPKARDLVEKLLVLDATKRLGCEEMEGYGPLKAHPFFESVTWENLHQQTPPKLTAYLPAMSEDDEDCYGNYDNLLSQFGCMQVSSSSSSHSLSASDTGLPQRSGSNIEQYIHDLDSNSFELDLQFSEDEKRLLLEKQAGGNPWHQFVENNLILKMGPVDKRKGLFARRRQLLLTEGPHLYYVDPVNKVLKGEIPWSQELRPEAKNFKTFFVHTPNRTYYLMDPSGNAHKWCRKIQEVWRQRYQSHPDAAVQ
Experimental: Reagents/Concentrations: The PDK1-4 peptide substrate, biotin-[…]-NH2, (SEQ ID NO: 1), was purchased from the Tufts University Core Facility. The final concentration of PDK1-4 peptide substrate was 50 nM. The ATP substrate (adenosine-[…] triphosphate) was purchased from Roche Diagnostics. The final concentration of ATP substrate was 10 μM. Phospho-(Ser/Thr) PKA substrate antibody was purchased from Cell Signaling Technology. The final concentration of antibody was 0.3 mg/mL. The Alpha Screen Protein A detection kit containing donor and acceptor beads was purchased from PerkinElmer Life Sciences. The final concentration of both donor and acceptor beads was 25 μg/mL. Alpha Screen was used for detection. The biotinylated-PDK1-4 peptide was phosphorylated by PDK1 kinase using the ATP substrate. The biotinylated-PDK1-4 peptide substrate was bound to the streptavidin coated donor bead. The antibody was bound to the protein A coated acceptor bead. The antibody bound to the phosphorylated form of the biotinylated PDK-1 peptide substrate, bringing the donor and acceptor beads into close proximity. Laser irradiation of the donor bead at 680 nm generated a flow of short-lived singlet oxygen molecules. When the donor and acceptor beads were in close proximity, the reactive oxygen generated by the irradiation of the donor beads initiated a luminescence/fluorescence cascade in the acceptor beads. This process led to a highly amplified signal with output in the 530-620 nm range. Assays were carried out in 50 mM Tris, pH=7.5, 10 mM MgCl2, 0.1% BSA, 0.01% Tween-20, 2 mM dithiolthreitol, 2.5% dimethyl sulfoxide. Reactions were stopped by adding 50 mM Tris, pH=7.5, 90 mM EDTA, 0.1% BSA, 0.01% Tween-20.
Procedure: To 10 μl, of PDK1-4 peptide, […] of test compound in dimethyl sulfoxide was added. PDK1 kinase and ATP were mixed, and 10 μL of the PDK1 kinase/ATP mix was added to start the reaction. The reaction was allowed to proceed for 3-18 hours. The reactions were then stopped by adding 10 μL of the EDTA-containing stop buffer. Beads were mixed with antibody, and 25 μL of the bead/antibody mix was then added to the stopped reactions. Plates were incubated at room temperature overnight to allow for detection development before being read. The assay was run in a 384-well format plate.

| SMILES | IC50 [µM] |
| --- | --- |
| NS(=O)(=O)c1ccc(Nc2ncc3cc(-c4nccs4)ccc3n2)cc1 [Example 27, 4-(6-(Thiazol-2-yl)quinazolin-2-ylamino)benzenesulfonamide] | < 5 |
| CC(=O)Nc1cc(CN2CCOCC2)cc(Nc2ncc3cc(-c4cn[nH]c4)ccc3n2)c1 [Example 30, N-(3-(6-(1H-Pyrazol-4-yl)quinazolin-2-ylamino)-5-(morpholinomethyl)phenyl)acetamide] | < 5 |
| CC(=O)Nc1cc(I)cc(Nc2ncc3cc(Br)ccc3n2)c1 [Example 31, N-(3-(6-Bromoquinazolin-2-ylamino)-5-iodophenyl)acetamide] | < 5 |
| CC(=O)Nc1cc(Nc2ncc3cc(Br)ccc3n2)cc(-c2cccnc2)c1 [Example 32, N-(3-(6-Bromoquinazolin-2-ylamino)-5-(pyridine-3-yl)phenyl)acetamide] | < 5 |
| C#Cc1ccc2nc(Nc3cc(NC(C)=O)cc(-c4cccnc4)c3)ncc2c1 [Example 34, N-(3-(6-Ethynylyquinazolin-2-ylamino)-5-(pyridine-3-yl)phenyl)acetamide] | < 5 |
| COc1cc2cnc(Nc3ccc(S(N)(=O)=O)cc3)nc2cc1OC [Example 35, 4-(6,7-Dimethoxyquinazolin-2-ylamino)benzenesulfonamide] | < 5 |
| COc1ccc2nc(Nc3ccc(C(N)=O)cc3)ncc2c1 [Example 36, 4-(6-methoxyquinazolin-2-ylamino)benzamide] | < 5 |
| CNC(=O)c1ccc2nc(Nc3ccc(S(N)(=O)=O)cc3)ncc2c1 [Example 37, N-methyl-2-(4-sulfamoyl-phenylamino)quinazoline-6-carboxamide] | 5 to 10 |
| NC(=O)c1ccc2nc(Nc3ccc(S(N)(=O)=O)cc3)ncc2c1 [Example 42, 2-(4-sulfamoylphenyl-amino)quinazoline-6-carboxamide] | < 5 |
| NS(=O)(=O)c1ccc(Nc2ncc3cc(C(=O)NC4CC4)ccc3n2)cc1 [Example 43, N-cyclopropyl-2-(4-sulfamoylphenylamino)-quinazoline-6-carboxamide] | < 5 |
| NS(=O)(=O)c1ccc(Nc2ncc3cc(-c4cccnc4F)ccc3n2)cc1 [Example 44, 4-(6-(2-fluoropyridin-3-yl)quinazolin-2-ylamino)-benzenesulfonamide] | < 5 |
| CN1CCN(c2cc(-c3ccc4nc(Nc5ccc(S(N)(=O)=O)cc5)ncc4c3)ccn2)CC1 [Example 45, 4-(6-(2-(4-methyl-piperazin-1-yl)pyridin-4-yl)quinazolin-2-ylamino)-benzenesulfonamide] | < 5 |
| COc1cc2nc(Nc3ccc(S(N)(=O)=O)cc3)ncc2cc1Br [Example 47, 4-(6-Bromo-7-methoxyquinazolin-2-ylamino)benzenesulfonamide] | < 5 |
| COc1cc2nc(Nc3ccc(S(=O)(=O)N4CCOCC4)cc3)ncc2cc1Br [Example 48, 6-bromo-7-methoxy-N-(4-(morpholinosulfonyl)phenyl)-quinazolin-2-amine] | < 5 |
| C#Cc1cc2cnc(Nc3ccc(S(N)(=O)=O)cc3)nc2cc1OC [Example 49, 4-(6-ethynyl-7-methoxy-quinazolin-2-ylamino)-benzenesulfonamide] | < 5 |
| C#Cc1cc2cnc(Nc3ccc(S(=O)(=O)N4CCOCC4)cc3)nc2cc1OC [Example 50, 6-ethynyl-7-methoxy-N-(4-(morpholinosulfonyl)-phenyl)-quinazolin-2-amine] | < 5 |
| C#Cc1ccc2nc(Nc3cccc(N4CCOCC4)c3)ncc2c1 [Example 51, 6-ethynyl-N-(3-morpholinophenyl)-quinazolin-2-amine] | < 5 |
| COc1cc(C#Cc2cccnc2)cc2cnc(Nc3ccc(S(N)(=O)=O)cc3)nc12 [Example 53, 4-(8-methoxy-6-(pyridin-3-ylethynyl)quinazolin-2-ylamino)benzene-sulfonamide] | 10 to 25 |
| Cc1ccc2nc(Nc3ccc(S(N)(=O)=O)cc3)ncc2c1 [Example 54, 4-(6-methylquinazolin-2-ylamino)benzene-sulfonamide] | < 5 |
| Cn1cc(-c2ccc3nc(Nc4ccc(S(N)(=O)=O)cc4)ncc3c2)cn1 [Example 56, 4-(6-(1-methyl-1H-pyrazol-4-yl)quinazolin-2-ylamino)benzene-sulfonamide] | < 5 |

Results, then the compound that gave them:

| IC50 [µM] | SMILES |
| --- | --- |
| < 5 | COc1cc(Br)cc2cnc(Nc3ccc(S(N)(=O)=O)cc3)nc12 [Example 1, 4-(6-Bromo-8-methoxyquinazolin-2-ylamino)benzenesulfonamide] |
| < 5 | C#Cc1cc(OC)c2nc(Nc3ccc(S(N)(=O)=O)cc3)ncc2c1 [Example 2, 4-(6-Ethynyl-8-methoxyquinazolin-2-ylamino)benzenesulfonamide] |
| < 5 | CCc1cc(OC)c2nc(Nc3ccc(S(N)(=O)=O)cc3)ncc2c1 [Example 3, 4-(6-Ethyl-8-methoxyquinazolin-2-ylamino)benzenesulfonamide] |
| < 5 | COc1cc(C#N)cc2cnc(Nc3ccc(S(N)(=O)=O)cc3)nc12 [Example 4, 4-(6-cyano-8-methoxyquinazolin-2-ylamino)benzene-sulfonamide] |
| < 5 | COc1cc(C)cc2cnc(Nc3ccc(S(N)(=O)=O)cc3)nc12 [Example 5, 4-(8-Methoxy-6-methylquinazolin-2-ylamino)benzenesulfonamide] |
| < 5 | CC(=O)Nc1cc(CN(C)C)cc(Nc2ncc3cc(Br)cc(Cl)c3n2)c1 [Example 6, N-(3-(6-Bromo-8-chloroquinazolin-2-ylamino)-5-((dimethylamino)-methyl)phenyl)acetamide] |
| < 5 | C#Cc1cc(Cl)c2nc(Nc3cc(CN(C)C)cc(NC(C)=O)c3)ncc2c1 [Example 7, N-(3-(8-Chloro-6-ethynylquinazolin-2-ylamino)-5((dimethylamino)methyl)-phenyl)acetamide] |
| < 5 | C#Cc1ccc2nc(Nc3ccc(S(N)(=O)=O)cc3)ncc2c1 [Example 10, 4(6-Ethynylquinazolin-2-ylamino)benzenesulfonamide] |
| < 5 | CC(C)NC(=O)c1ccc(Nc2ncc3cc(-c4nccs4)ccc3n2)cc1 [Example 12, N-Isopropyl-4-(6-(thiazol-2-yl)quinazolin-2-ylamino)benzamide] |
| < 5 | CC(C)NC(=O)c1ccc(Nc2ncc3cc(C#N)ccc3n2)cc1 [Example 13, 4-(6-Cyanoquinazolin-2-ylamino)-N-Isopropylbenzamide] |
| < 5 | COc1cc(Br)c(Cl)c2cnc(Nc3cc(CN(C)C)cc(NC(C)=O)c3)nc12 [Example 14, N-(3-(6-Bromo-5-chloro-8-methoxyquinazolin-2-ylamino)-5-((dimethylamino)methyl)phenyl)acetamide] |
| < 5 | NS(=O)(=O)c1ccc(Nc2ncc3cc(C(=O)O)ccc3n2)cc1 [Example 19, Methyl 2-(4-sulfamoylphenylamimo)quinazolin-6-carboxylic acid] |
| < 5 | C#Cc1ccc2nc(Nc3ccc(C(=O)N4CCOCC4)cc3)ncc2c1Cl [Example 22, (4-(5-Chloro-6-ethynylquinazolin-2-ylamino)phenyl)(morpholino) methanone] |
| < 5 | Fc1c(Br)ccc2nc(Nc3ccc(N4CCOCC4)cc3)ncc12 [Example 23, 6-Bromo-5-fluoro-N-(4-morpholinophenyl)quinazolin-2-amine] |
| < 5 | C#Cc1ccc2nc(Nc3ccc(N4CCOCC4)cc3)ncc2c1F [Example 24, 6-Ethynyl-5-fluoro-N-(4-morpholinophenyl)quinazolin-2-amine] |
